Data published in patent US9284304B2, “Substituted pyrimidines as toll-like receptor modulators” (JANSSEN SCIENCES IRELAND UC, priority 2012, dated 2016).

Legend:
human TLR7 (hTLR7) = target: T1, human TLR7 (hTLR7) (Homo sapiens, UniProt Q9NYK1); assay: TLR7 cellular NFκB-luc reporter assay in transiently transfected HEK293 cells; format: cell-based; parameters: unit not given here; details: lowest effective concentration, wild type TLR7, 48 hours incubation
T1 construct: expressed in transfected cells; host or cells: HEK293
T1 sequence (Q9NYK1 27-1049): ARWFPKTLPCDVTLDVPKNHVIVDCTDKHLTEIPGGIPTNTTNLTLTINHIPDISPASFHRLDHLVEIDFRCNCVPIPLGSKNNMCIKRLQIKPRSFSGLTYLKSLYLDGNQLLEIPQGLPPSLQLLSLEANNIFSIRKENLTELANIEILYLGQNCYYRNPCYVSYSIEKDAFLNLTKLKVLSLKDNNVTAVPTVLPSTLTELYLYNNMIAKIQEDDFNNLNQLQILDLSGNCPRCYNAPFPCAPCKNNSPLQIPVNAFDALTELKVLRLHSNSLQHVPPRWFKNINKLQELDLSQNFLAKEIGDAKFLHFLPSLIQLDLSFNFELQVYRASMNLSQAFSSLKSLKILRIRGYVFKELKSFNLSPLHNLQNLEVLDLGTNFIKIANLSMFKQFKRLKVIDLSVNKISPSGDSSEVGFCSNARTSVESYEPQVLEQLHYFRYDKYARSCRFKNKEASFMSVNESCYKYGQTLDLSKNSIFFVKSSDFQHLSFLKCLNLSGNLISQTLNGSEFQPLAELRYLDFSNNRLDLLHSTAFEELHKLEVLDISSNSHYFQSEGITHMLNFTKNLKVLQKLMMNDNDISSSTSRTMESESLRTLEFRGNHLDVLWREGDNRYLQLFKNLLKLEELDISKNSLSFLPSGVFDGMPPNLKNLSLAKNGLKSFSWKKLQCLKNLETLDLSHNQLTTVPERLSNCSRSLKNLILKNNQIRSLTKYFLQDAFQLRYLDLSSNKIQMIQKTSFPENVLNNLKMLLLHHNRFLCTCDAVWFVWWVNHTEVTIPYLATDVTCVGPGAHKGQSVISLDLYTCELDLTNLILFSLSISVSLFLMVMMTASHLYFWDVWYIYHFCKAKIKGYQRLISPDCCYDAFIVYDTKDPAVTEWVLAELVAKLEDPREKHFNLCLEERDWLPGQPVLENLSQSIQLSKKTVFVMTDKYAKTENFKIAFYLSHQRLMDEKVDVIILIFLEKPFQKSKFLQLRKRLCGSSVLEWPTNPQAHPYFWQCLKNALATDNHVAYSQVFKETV
Description: (§1) The ability of compounds to activate human TLR7 (hTLR7) and/or TLR8 (hTLR8) was assessed in a cellular reporter assay using HEK293 cells transiently transfected with a TLR7 or TLR8 expression vector and NFκB-luc reporter construct. In one instance the TLR expression construct expresses the respective wild type sequence or a mutant sequence comprising a deletion in the second leucine-rich repeat of the TLR. […] Briefly, HEK293 cells were grown in culture medium (DMEM supplemented with 10% FCS and 2 mM Glutamine). For transfection of cells in 10 cm dishes, cells were detached with Trypsin-EDTA, transfected with a mix of CMV-TLR7 or TLR8 plasmid (750 ng), NFκB-luc plasmid (375 ng) and a transfection reagent and incubated overnight at 37° C. in a humidified 5% CO2 atmosphere. Transfected cells were then detached with Trypsin-EDTA, washed in PBS and resuspended in medium to a density of 1.67×10^5 cells/mL. Thirty microliters of cells were then dispensed into each well in 384-well plates, where 10 μL of compound in 4% DMSO was already present. Following 48 hours incubation at 37° C., 5% CO2, the luciferase activity was determined by adding 15 μl of Steady Lite Plus substrate (Perkin Elmer) to each well and readout performed on a ViewLux ultraHTS microplate imager (Perkin Elmer). Dose response curves were generated from measurements performed in quadruplicates. Lowest effective concentrations (LEC) values, defined as the concentration that induces an effect which is at least two fold above the standard deviation of the assay, were determined for each compound.

human TLR8 (hTLR8) = target: T2, human TLR8 (hTLR8) (Homo sapiens, UniProt Q9NR97); assay: TLR8 cellular NFκB-luc reporter assay in transiently transfected HEK293 cells; format: cell-based; parameters: unit not given here; details: lowest effective concentration, wild type TLR8, 48 hours incubation
T2 construct: expressed in transfected cells; host or cells: HEK293
T2 sequence (Q9NR97 27-1041): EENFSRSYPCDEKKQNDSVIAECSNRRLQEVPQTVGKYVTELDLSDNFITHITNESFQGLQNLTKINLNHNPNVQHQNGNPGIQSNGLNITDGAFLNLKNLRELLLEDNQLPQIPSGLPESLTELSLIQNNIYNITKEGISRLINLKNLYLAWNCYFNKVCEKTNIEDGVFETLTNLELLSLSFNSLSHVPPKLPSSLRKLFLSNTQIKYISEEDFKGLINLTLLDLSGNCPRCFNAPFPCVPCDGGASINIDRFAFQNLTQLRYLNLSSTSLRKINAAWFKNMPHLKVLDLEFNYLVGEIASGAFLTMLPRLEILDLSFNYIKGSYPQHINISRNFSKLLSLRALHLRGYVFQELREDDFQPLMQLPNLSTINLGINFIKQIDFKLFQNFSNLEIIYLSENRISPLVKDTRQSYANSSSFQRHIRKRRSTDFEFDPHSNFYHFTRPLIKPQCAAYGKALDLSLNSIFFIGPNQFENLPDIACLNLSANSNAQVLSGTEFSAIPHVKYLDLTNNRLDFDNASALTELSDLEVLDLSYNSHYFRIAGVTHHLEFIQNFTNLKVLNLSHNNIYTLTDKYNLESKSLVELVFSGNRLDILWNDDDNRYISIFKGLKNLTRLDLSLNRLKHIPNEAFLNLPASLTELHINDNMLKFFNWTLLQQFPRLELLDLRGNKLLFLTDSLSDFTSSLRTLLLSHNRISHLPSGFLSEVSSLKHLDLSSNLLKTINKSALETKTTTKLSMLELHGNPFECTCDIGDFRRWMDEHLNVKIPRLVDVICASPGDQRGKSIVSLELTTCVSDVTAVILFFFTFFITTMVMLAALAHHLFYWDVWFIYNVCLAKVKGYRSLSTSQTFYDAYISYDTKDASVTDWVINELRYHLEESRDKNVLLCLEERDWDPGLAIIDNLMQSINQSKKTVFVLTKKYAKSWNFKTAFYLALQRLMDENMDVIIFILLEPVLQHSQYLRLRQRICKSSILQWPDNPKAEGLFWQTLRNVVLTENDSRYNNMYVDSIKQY
Description: as §1

hTLR7 wt (LEC) (human TLR7 (hTLR7))	hTLR8 wt (LEC) (human TLR8 (hTLR8))	SMILES
2.4	12	CCCCNc1nc(N)ncc1CCc1ccc(OC)cc1OC.Cl [Example 3]
0.5	1.2	CCCCNc1nc(N)ncc1CCc1ccc2ccccc2n1.Cl [Example 7]
2.4	1.3	CCCCNc1nc(N)ncc1CC.Cl [Example 1]
5	13	CCCCNc1nc(N)ncc1CCc1ccccc1OC.Cl [Example 4]
1.2	1.4	CCCCNc1nc(N)ncc1CCc1cccnc1.Cl [Example 5]
8.1	3.6	CCCCNc1nc(N)ncc1CCc1cccs1.Cl [Example 8]
6.7	6.5	CCCCNc1nc(N)ncc1CCc1ccccc1.Cl [Example 2]
0.6	1.6	CCCCNc1nc(N)ncc1CCc1ccccn1.Cl [Example 6]
